From ChEMBL document CHEMBL1921788, “Development of melanoma-targeted polymer micelles by conjugation of a melanocortin 1 receptor (MC1R) specific ligand” (J Med Chem, 2011)
Non-standard residues stand in square brackets, D forms with d. Residues, ends and D or L forms follow the SMILES beside them. d2Nal = N[C@H](Cc1ccc2ccccc2c1)C(=O)O; Nle = CCCC[C@H](N)C(=O)O

Tested on: HEK293
Assay: Selectivity ratio of Ki for human MC5 receptor expressed in human HEK293 cells to Ki for human MC1 receptor expressed in human HCT116 cells
Type: cell-based

CCCC[C@H](NC(=O)[C@@H](NC(=O)[C@@H](N)Cc1ccc(O)cc1)C(C)C)C(=O)NCC(=O)N[C@@H](Cc1cnc[nH]1)C(=O)N[C@H](Cc1ccc2ccccc2c1)C(=O)N[C@@H](CCCNC(=N)N)C(=O)N[C@H](Cc1ccccc1)C(=O)N[C@@H](CC(=O)O)C(=O)N[C@@H](CCCNC(=N)N)C(=O)N[C@@H](Cc1ccccc1)C(=O)NCC(N)=O (H-YV[Nle]GH[d2Nal]R[dF]DRFG-NH2)
Ratio Ki: 0.13
